This passage reports T/C results from PubChem BioAssay AID248 (DTP/NCI, 2004).

Where “and” joins values, the source holds several entries; their conditions need not be identical. Equal entries are not always repeated. Inconclusive results and toxic doses are left out.

The experiment concerns L1210 leukemia ip in BDF1 mice, survival T/C. In words: NCI In Vivo Anticancer Drug Screen. Data for tumor model L1210 Leukemia (intraperitoneal) in B6D2F1 (BDF1) mice. To be noted: endpoint: mean survival time, higher = longer survival. The gist of the method:
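In this screen, tumor-bearing mice given compound are compared to those given vehicle, and their survival values are reported as a treated-to-control quotient.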

[1] abbreviates: dose: 100.0 mg/kg/injection, schedule: Q01DX009 (ip), vehicle: Klucel (hydroxypropylcellulose) (HPC).
Setting [2] is: dose: 75.0 mg/kg/injection, schedule: Q01DX001 (ip), vehicle: saline.

Regarding `CC(=O)c1cccc(OC(=O)Nc2ccc(Cl)cc2)c1`, the T/C runs as follows: (dose: 100.0 mg/kg/injection, schedule: Q01DX001 (ip), vehicle: carboxymethylcellulose (CMC)) 89 % of control; (dose: 100.0 mg/kg/injection, schedule: Q01DX009 (ip), vehicle: carboxymethylcellulose (CMC)) 101 % of control and 102 % of control; (dose: 100.0 mg/kg/injection, schedule: Q04DX003 (ip), vehicle: carboxymethylcellulose (CMC)) 92 % of control and 90 % of control; (dose: 200.0 mg/kg/injection, schedule: Q01DX001 (ip), vehicle: carboxymethylcellulose (CMC)) 94 % of control; (dose: 200.0 mg/kg/injection, schedule: Q01DX009 (ip), vehicle: carboxymethylcellulose (CMC)) 98 % of control and 90 % of control; (dose: 200.0 mg/kg/injection, schedule: Q04DX003 (ip), vehicle: carboxymethylcellulose (CMC)) 95 % of control and 97 % of control. Besides, the T/C by setting is: (dose: 400.0 mg/kg/injection, schedule: Q01DX001 (ip), vehicle: carboxymethylcellulose (CMC)) 89 % of control; (dose: 400.0 mg/kg/injection, schedule: Q01DX009 (ip), vehicle: carboxymethylcellulose (CMC)) 98 % of control and 88 % of control; (dose: 400.0 mg/kg/injection, schedule: Q04DX003 (ip), vehicle: carboxymethylcellulose (CMC)) 90 % of control.

On to `CNc1ccc(C(=O)NC(CCC(=O)O)C(=O)O)cc1[N+](=O)[O-]` (stereo unspecified), for which the T/C reads like this: (dose: 100.0 mg/kg/injection, schedule: Q04DX003 (ip), vehicle: saline) 105 % of control; (dose: 200.0 mg/kg/injection, schedule: Q04DX003 (ip), vehicle: saline) 94 % of control; (dose: 400.0 mg/kg/injection, schedule: Q04DX003 (ip), vehicle: saline) 103 % of control.

For `O=C(Oc1ccccc1)c1ccc(Cl)cc1`, the T/C runs as follows: under setting [1], 98 % of control; (dose: 100.0 mg/kg/injection, schedule: Q04DX003 (ip), vehicle: Klucel (hydroxypropylcellulose) (HPC)) 102 % of control; (dose: 200.0 mg/kg/injection, schedule: Q01DX009 (ip), vehicle: Klucel (hydroxypropylcellulose) (HPC)) 95 % of control; (dose: 200.0 mg/kg/injection, schedule: Q04DX003 (ip), vehicle: Klucel (hydroxypropylcellulose) (HPC)) 101 % of control; (dose: 400.0 mg/kg/injection, schedule: Q01DX009 (ip), vehicle: Klucel (hydroxypropylcellulose) (HPC)) 98 % of control; (dose: 400.0 mg/kg/injection, schedule: Q04DX003 (ip), vehicle: Klucel (hydroxypropylcellulose) (HPC)) 98 % of control.

In the case of `CN1CC(N(C)C)CCC/C=C\C1=O` (stereo unspecified), the T/C under setting [2] was 102 % of control.

`COC(=O)NC1CC(O)C(CO)C1` (stereo unspecified): the T/C by setting is: (dose: 50.0 mg/kg/injection, schedule: Q01DX009 (ip), vehicle: Klucel (hydroxypropylcellulose) (HPC)) 94 % of control; under setting [1], 97 % of control.

As to `CO/N=C(/C)C1(O)Cc2c(O)c3c(c(O)c2C(OC2CC(N)C(O)C(C)O2)C1)C(=O)c1c(OC)cccc1C3=O` (stereo unspecified), the T/C reads like this: (dose: 1.0 mg/kg/injection, schedule: Q01DX009 (ip), vehicle: water) 109 % of control; (dose: 2.0 mg/kg/injection, schedule: Q01DX009 (ip), vehicle: water) 109 % of control; (dose: 2.0 mg/kg/injection, schedule: Q04DX003 (ip), vehicle: water) 101 % of control; (dose: 3.12 mg/kg/injection, schedule: Q01DX009 (ip), vehicle: saline with Tween-80) 111 % of control; (dose: 4.0 mg/kg/injection, schedule: Q01DX009 (ip), vehicle: water) 108 % of control; (dose: 4.0 mg/kg/injection, schedule: Q04DX003 (ip), vehicle: water) 100 % of control. For the same molecule, the T/C was 106 % of control (dose: 6.25 mg/kg/injection, schedule: Q01DX009 (ip), vehicle: saline with Tween-80); 106 % of control (dose: 8.0 mg/kg/injection, schedule: Q01DX009 (ip), vehicle: water); 101 % of control (dose: 8.0 mg/kg/injection, schedule: Q04DX003 (ip), vehicle: water); 106 % of control (dose: 12.5 mg/kg/injection, schedule: Q01DX009 (ip), vehicle: saline with Tween-80); 95 % of control (dose: 12.5 mg/kg/injection, schedule: Q04DX003 (ip), vehicle: saline); 100 % of control (dose: 125.0 micrograms/kg/injection, schedule: Q04DX003 (ip), vehicle: water). Besides, the T/C (dose: 250.0 micrograms/kg/injection, schedule: Q04DX003 (ip), vehicle: water) was 101 % of control; the T/C (dose: 500.0 micrograms/kg/injection, schedule: Q04DX003 (ip), vehicle: water) is 97 % of control; the T/C (dose: 1000.0 micrograms/kg/injection, schedule: Q04DX003 (ip), vehicle: water) is 105 % of control; the T/C (dose: 2000.0 micrograms/kg/injection, schedule: Q04DX003 (ip), vehicle: water) was 102 % of control.

Regarding `CC1(C)CCCC2(C)C(O)C3CCC2C31` (stereo unspecified), the T/C reads like this: (dose: 100.0 mg/kg/injection, schedule: Q01DX001 (ip), vehicle: Klucel (hydroxypropylcellulose) (HPC)) 96 % of control; (dose: 200.0 mg/kg/injection, schedule: Q01DX001 (ip), vehicle: Klucel (hydroxypropylcellulose) (HPC)) 91 % of control; (dose: 400.0 mg/kg/injection, schedule: Q01DX001 (ip), vehicle: Klucel (hydroxypropylcellulose) (HPC)) 90 % of control.

For `COc1ccc(C(C)=O)cc1CCCO`, the T/C runs as follows: (dose: 100.0 mg/kg/injection, schedule: Q01DX001 (ip), vehicle: saline) 95 % of control; (dose: 200.0 mg/kg/injection, schedule: Q01DX001 (ip), vehicle: saline) 91 % of control; (dose: 400.0 mg/kg/injection, schedule: Q01DX001 (ip), vehicle: saline) 97 % of control.

Turning to `CCOC(=O)Cc1cc(=O)c2cc(OC)ccc2[nH]1`, the T/C runs as follows: under setting [2], 107 % of control; (dose: 75.0 mg/kg/injection, schedule: Q04DX003 (ip), vehicle: saline) 105 % of control; (dose: 150.0 mg/kg/injection, schedule: Q01DX001 (ip), vehicle: saline) 91 % of control; (dose: 150.0 mg/kg/injection, schedule: Q04DX003 (ip), vehicle: saline) 100 % of control; (dose: 300.0 mg/kg/injection, schedule: Q01DX001 (ip), vehicle: saline) 94 % of control; (dose: 300.0 mg/kg/injection, schedule: Q04DX003 (ip), vehicle: saline) 103 % of control.

Turning to `COC1OCC(Cl)C(Cl)C1O` (stereo unspecified), the T/C (dose: 50.0 mg/kg/injection, schedule: Q04DX002 (ip), vehicle: saline) was 110 % of control; the T/C (dose: 100.0 mg/kg/injection, schedule: Q04DX002 (ip), vehicle: saline) is 100 % of control; the T/C (dose: 200.0 mg/kg/injection, schedule: Q04DX002 (ip), vehicle: saline) is 100 % of control.

In the case of `N#CC(C#N)=CN1CCOCC1`, the T/C was 87 % of control (dose: 100.0 mg/kg/injection, schedule: Q04DX002 (ip), vehicle: saline with Tween-80) and 87 % of control (dose: 200.0 mg/kg/injection, schedule: Q04DX002 (ip), vehicle: saline with Tween-80).

For `CN(C)[C@@H]1C(=O)C(C(=O)NCNC(Cc2ccc(N(CCCl)CCCl)cc2)C(=O)O)=C(O)[C@@]2(O)C(=O)C3=C(O)c4c(O)cccc4[C@@](C)(O)[C@H]3C[C@@H]12` (stereo partly specified), the T/C was 114 % of control (dose: 1.3 mg/kg/injection, schedule: Q01DX009 (ip), vehicle: other); 121 % of control (dose: 4.69 mg/kg/injection, schedule: Q01DX009 (ip), vehicle: saline); 96 % of control (dose: 5.0 mg/kg/injection, schedule: Q01DX001 (ip), vehicle: saline); 152 % of control (dose: 6.6 mg/kg/injection, schedule: Q01DX009 (ip), vehicle: other); 109 % of control (dose: 9.0 mg/kg/injection, schedule: Q01DX001 (ip), vehicle: saline); 173 % of control (dose: 10.0 mg/kg/injection, schedule: Q01DX009 (ip), vehicle: other). Besides, the T/C is, setting by setting: (dose: 18.0 mg/kg/injection, schedule: Q01DX009 (ip), vehicle: other) 189 % of control; (dose: 18.95 mg/kg/injection, schedule: Q01DX009 (ip), vehicle: saline) 162 % of control; (dose: 19.0 mg/kg/injection, schedule: Q01DX001 (ip), vehicle: saline) 102 % of control; (dose: 30.0 mg/kg/injection, schedule: Q01DX001 (ip), vehicle: other) 156 % of control; (dose: 37.5 mg/kg/injection, schedule: Q01DX009 (ip), vehicle: saline) 166 % of control; (dose: 38.0 mg/kg/injection, schedule: Q01DX001 (ip), vehicle: saline) 123 % of control. In addition, the T/C by setting is: (dose: 44.0 mg/kg/injection, schedule: Q01DX001 (ip), vehicle: other) 152 % of control and 164 % of control; (dose: 67.0 mg/kg/injection, schedule: Q01DX001 (ip), vehicle: other) 173 % of control; under setting [2], 122 % of control; (dose: 75.0 mg/kg/injection, schedule: Q01DX009 (ip), vehicle: saline) 102 % of control; (dose: 100.0 mg/kg/injection, schedule: Q01DX001 (ip), vehicle: other) 191 % of control.
